Where a name gives a salt, the structure may show the parent alone.
Molecular target: T1, recombinant human α1D receptor (Homo sapiens, UniProt P25100)
T1 construct: made in house; host or cells: HEK293 cells (membranes)
T1 sequence (P25100 1-572): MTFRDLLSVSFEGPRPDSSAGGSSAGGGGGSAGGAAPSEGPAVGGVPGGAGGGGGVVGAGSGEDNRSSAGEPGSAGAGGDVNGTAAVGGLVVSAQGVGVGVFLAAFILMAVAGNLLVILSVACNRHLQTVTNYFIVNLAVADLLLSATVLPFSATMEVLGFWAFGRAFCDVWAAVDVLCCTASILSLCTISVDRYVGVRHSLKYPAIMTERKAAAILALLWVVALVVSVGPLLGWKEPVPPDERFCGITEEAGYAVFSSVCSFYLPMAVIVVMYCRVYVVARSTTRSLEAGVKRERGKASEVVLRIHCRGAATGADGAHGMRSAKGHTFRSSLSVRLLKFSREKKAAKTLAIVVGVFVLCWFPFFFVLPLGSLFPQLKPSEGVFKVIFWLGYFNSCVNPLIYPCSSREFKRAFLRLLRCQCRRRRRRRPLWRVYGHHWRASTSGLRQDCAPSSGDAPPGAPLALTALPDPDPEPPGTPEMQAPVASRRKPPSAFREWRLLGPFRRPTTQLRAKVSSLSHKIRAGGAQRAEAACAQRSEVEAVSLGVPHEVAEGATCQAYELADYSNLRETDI
Assay: Adrenergic α1D selectivity assay, inhibition of [3H]-prazosin binding to membranes
Settings: HEK293 membranes, [3H]-prazosin 0.3 nM; read-out: α1 bind pIC50 (converted)
Description: Membranes were prepared from human embryonic kidney 293 (HEK293) cells expressing recombinant human α1D receptor. These were diluted in Assay Buffer (50 mM HEPES, 1 mM EDTA, 0.1% gelatin, pH 7.4) to provide a final concentration of membranes that gave a clear window between maximum and minimum specific binding.
Assays were performed in U-bottomed 96-well polypropylene plates. 10 μL [^3H]-prazosin (0.3 nM final concentration) and 10 μL of test compound (10× final concentration) were added to each test well. For each assay plate 8 replicates were obtained for [^3H]-prazosin binding in the presence of 10 μL vehicle (10% (v/v) DMSO in Assay Buffer; defining maximum binding) or 10 μL BMY7378 (10 μM final concentration; defining non-specific binding (NSB)). Membranes were then added to achieve a final volume of 100 μL. The plates were incubated for 2 hours at room temperature and then filtered onto PEI coated GF/B filter plates, pre-soaked for 1 hour in Assay Buffer, using a 96-well plate Tomtec cell harvester. Five washes with 250 μL wash buffer (50 mM HEPES, 1 mM EDTA, pH 7.4) were performed at 4° C. to remove unbound radioactivity. The plates were dried then sealed from underneath using Packard plate sealers and MicroScint-O (50 μL) was added to each well. The plates were sealed (TopSeal A) and filter-bound radioactivity was measured with a scintillation counter (TopCount, Packard BioScience) using a 3-minute counting protocol.
Total specific binding (B0) was determined by subtracting the mean NSB from the mean maximum binding. NSB values were also subtracted from values from all other wells. […] Data was fitted to a four parameter logistic equation to determine the compound potency, which was expressed as pIC50 (negative log molar concentration inducing 50% inhibition of [^3H]-prazosin binding).

`CCN(CC)CCN(CCNCCc1ccc(O)c2[nH]c(=O)sc12)C(=O)CCOCCc1ccc(Cl)cc1` [Example 26, 3-[2-(4-Chlorophenyl)ethoxy]-N-(2-diethylaminoethyl)-N-{2-[2-(4-hydroxy-2-oxo-2,3-dihydro-1,3-benzothiazol-7-yl)ethylamino]ethyl}propanamide dihydrobromide] was tested, and the IC50 was 3.16 µM.

With `CCN(CC)CCN(CCNCCc1ccc(O)c2[nH]c(=O)sc12)C(=O)CCOCCc1cccc(C)c1` [Example 28, N-[2-(Diethylamino)ethyl]-N-(2-{[2-(4-hydroxy-2-oxo-2,3-dihydro-1,3-benzothiazol-7-yl)ethyl]amino}ethyl)-3-[2-(3-methylphenyl)ethoxy]propanamide] the IC50 was 1.26 µM.
